From article PMC5896373 (Molecular Pharmacology, 2018) come the findings set out here.

Structures are written as SMILES. Where only a bound is given, the exact number is not on record here.

Test [1] addresses T1, chimeric P2X7/1 receptor 295–310 (Homo sapiens, UniProt Q99572, E305N/I21V/I310F/K297R/K300V/K306Y/M24R/N16P/N25R/N303G/Q22R/R20V/S23N/T19I/T308H/V304T/Y26L/Y295F/Y298H/Y299F).
T1 construct: expressed in transfected cells; host or cells: Xenopus laevis oocytes (cRNA injection)
As to the kind of experiment: cell-based. In kind it is cell-based.
Protocol: (§1) Additional point mutants were made using the QuikChange mutagenesis kit (Stratagene California, La Jolla, CA). The production of the correct mutations and absence of coding errors was determined by DNA sequencing (Automated ABI Sequencing Service, University of Leicester, UK). cRNA was generated for the mutants and 50 nl (50 ng) was injected into manually defoliculated stage V Xenopus laevis oocytes using an Inject+Matic microinjector (J.A. Gabay, Inject+Matic, Geneva, Switzerland). Injected oocytes were stored at 16°C in ND96 buffer [in millimolar concentrations, NaCl 96, KCl 2, CaCl2 1.8, MgCl2 1, sodium pyruvate 5, and HEPES 5 (pH 7.6) supplemented with 50 μg/ml gentamycin and 50 μg/ml tetracycline]. Three to seven days postinjection two-electrode voltage clamp recordings were made from oocytes bathed in divalent-free ND96 buffer (in millimolar concentrations, NaCl 96, KCl 2, sodium pyruvate 5, HEPES 5, and 0.1 flufenamic acid, pH 7.6). Oocytes were voltage clamped at a holding potential of −60 mV with a GeneClamp500B amplifier (Molecular Devices).
(§2) Inhibition by the antagonists was expressed as the percentage of the peak current amplitude of an EC90 concentration of ATP recorded before the application of antagonist (ATP gave reproducible responses to ATP in the absence of antagonist). Inhibition curves were fitted with the Hill equation (variable slope) using GraphPad Prism 6 (GraphPad Software, San Diego, CA). […] Individual concentration-response curves were generated for individual experiments, and statistical analysis was carried out on the data generated. […] Data are shown as mean ± S.E.M. In all cases n ≥ 3 for all data points.

The target in a further test is T2, P2X7R point mutant Y295A (Homo sapiens, UniProt Q99572, I21V/M24R/N16P/N25R/Q22R/R20V/S23N/T19I/Y26L/Y295A).
T2 construct: expressed in transfected cells; host or cells: Xenopus laevis oocytes (cRNA injection)
T2 sequence (Q99572 whole entry N16P/T19I/R20V/I21V/Q22R/S23N/M24R/N25R/Y26L/Y295A): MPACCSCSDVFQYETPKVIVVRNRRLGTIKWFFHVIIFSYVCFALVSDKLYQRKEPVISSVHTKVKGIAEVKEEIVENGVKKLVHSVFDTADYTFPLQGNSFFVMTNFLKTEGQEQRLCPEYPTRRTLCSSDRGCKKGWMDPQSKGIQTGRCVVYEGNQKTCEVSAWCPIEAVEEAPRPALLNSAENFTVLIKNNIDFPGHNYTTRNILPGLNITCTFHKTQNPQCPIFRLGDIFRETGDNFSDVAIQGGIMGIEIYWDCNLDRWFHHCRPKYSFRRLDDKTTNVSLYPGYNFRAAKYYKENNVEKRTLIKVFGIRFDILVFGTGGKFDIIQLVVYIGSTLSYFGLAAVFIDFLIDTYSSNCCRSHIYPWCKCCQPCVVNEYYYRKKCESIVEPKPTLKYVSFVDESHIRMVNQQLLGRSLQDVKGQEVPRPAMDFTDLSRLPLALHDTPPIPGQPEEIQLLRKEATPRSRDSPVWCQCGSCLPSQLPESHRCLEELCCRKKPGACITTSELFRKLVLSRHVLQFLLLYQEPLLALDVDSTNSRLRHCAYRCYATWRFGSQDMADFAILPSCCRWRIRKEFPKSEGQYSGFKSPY
Briefly: Two-electrode voltage clamp of ATP-evoked currents in Xenopus oocytes. The format is cell-based. The following applies: EC90 ATP, mean ± S.E.M. In general terms: Two-electrode voltage clamp is typically applied to oocytes expressing channels or transporters.

Another test addresses T3, P2X7R point mutant T90V (Homo sapiens, UniProt Q99572, I21V/M24R/N16P/N25R/Q22R/R20V/S23N/T19I/T90V/Y26L).
T3 construct: expressed in transfected cells; host or cells: Xenopus laevis oocytes (cRNA injection)
The description is as above. The format is cell-based. Conditions: EC90 ATP, mean ± S.E.M.

For another test, the target named is T4, P2X7R point mutant M105A (Homo sapiens, UniProt Q99572, I21V/M105A/M24R/N16P/N25R/Q22R/R20V/S23N/T19I/Y26L).
T4 construct: expressed in transfected cells; host or cells: Xenopus laevis oocytes (cRNA injection)
T4 sequence (Q99572 whole entry N16P/T19I/R20V/I21V/Q22R/S23N/M24R/N25R/Y26L/M105A): as the sequence (Q99572 whole entry N16P/T19I/R20V/I21V/Q22R/S23N/M24R/N25R/Y26L/Y295A) above, with M105A, A295Y counted along it
Described as above. In kind it is cell-based. Conditions: EC90 ATP, mean ± S.E.M.

The next test has as its target T5, P2X7R point mutant T308A (Homo sapiens, UniProt Q99572, I21V/M24R/N16P/N25R/Q22R/R20V/S23N/T19I/T308A/Y26L).
T5 construct: expressed in transfected cells; host or cells: Xenopus laevis oocytes (cRNA injection)
The test is described as above. In kind it is cell-based. The following applies: EC90 ATP, mean ± S.E.M.

The next test addresses T6, P2X7R point mutant H85P (Homo sapiens, UniProt Q99572, H85P/I21V/M24R/N16P/N25R/Q22R/R20V/S23N/T19I/Y26L).
T6 construct: expressed in transfected cells; host or cells: Xenopus laevis oocytes (cRNA injection)
Described as above. The format is cell-based. Conditions: EC90 ATP, mean ± S.E.M.

A further test addresses T7, P2X7R point mutant D92A (Homo sapiens, UniProt Q99572, D92A/I21V/M24R/N16P/N25R/Q22R/R20V/S23N/T19I/Y26L).
T7 construct: expressed in transfected cells; host or cells: Xenopus laevis oocytes (cRNA injection)
Described as above. In kind it is cell-based. The following applies: EC90 ATP, mean ± S.E.M.

A further test deals with T8, P2X7R point mutant S165F (Homo sapiens, UniProt Q99572, I21V/M24R/N16P/N25R/Q22R/R20V/S165F/S23N/T19I/Y26L).
T8 construct: expressed in transfected cells; host or cells: Xenopus laevis oocytes (cRNA injection)
T8 sequence (Q99572 whole entry N16P/T19I/R20V/I21V/Q22R/S23N/M24R/N25R/Y26L/S165F): as the sequence (Q99572 whole entry N16P/T19I/R20V/I21V/Q22R/S23N/M24R/N25R/Y26L/Y295A) above, with S165F, A295Y counted along it
The description is as above. The format is cell-based. Conditions: EC90 ATP, mean ± S.E.M.

A further test concerns the target T9, P2X7R point mutant I310A (Homo sapiens, UniProt Q99572, I21V/I310A/M24R/N16P/N25R/Q22R/R20V/S23N/T19I/Y26L).
T9 construct: expressed in transfected cells; host or cells: Xenopus laevis oocytes (cRNA injection)
The description is as above. Conditions: EC90 ATP, mean ± S.E.M. The format is cell-based.

The next test addresses T10, P2X7R point mutant Y298A (Homo sapiens, UniProt Q99572, I21V/M24R/N16P/N25R/Q22R/R20V/S23N/T19I/Y26L/Y298A).
T10 construct: expressed in transfected cells; host or cells: Xenopus laevis oocytes (cRNA injection)
As to the kind of experiment: cell-based.

Test [2] concerns the target T11, chimeric P2X7/1 receptor 210–217 (Homo sapiens, UniProt Q99572, G211E/I214K/I21V/INS213AAHM/L212V/M24R/N16P/N25R/P210E/Q22R/R20V/S23N/T19I/T217L/Y26L).
T11 construct: expressed in transfected cells; host or cells: Xenopus laevis oocytes (cRNA injection)
T11 sequence (Q99572 with tags, fused parts or gaps N16P/T19I/R20V/I21V/Q22R/S23N/M24R/N25R/Y26L/P210E/G211E/L212V/INS213AAHM/I214K/T217L): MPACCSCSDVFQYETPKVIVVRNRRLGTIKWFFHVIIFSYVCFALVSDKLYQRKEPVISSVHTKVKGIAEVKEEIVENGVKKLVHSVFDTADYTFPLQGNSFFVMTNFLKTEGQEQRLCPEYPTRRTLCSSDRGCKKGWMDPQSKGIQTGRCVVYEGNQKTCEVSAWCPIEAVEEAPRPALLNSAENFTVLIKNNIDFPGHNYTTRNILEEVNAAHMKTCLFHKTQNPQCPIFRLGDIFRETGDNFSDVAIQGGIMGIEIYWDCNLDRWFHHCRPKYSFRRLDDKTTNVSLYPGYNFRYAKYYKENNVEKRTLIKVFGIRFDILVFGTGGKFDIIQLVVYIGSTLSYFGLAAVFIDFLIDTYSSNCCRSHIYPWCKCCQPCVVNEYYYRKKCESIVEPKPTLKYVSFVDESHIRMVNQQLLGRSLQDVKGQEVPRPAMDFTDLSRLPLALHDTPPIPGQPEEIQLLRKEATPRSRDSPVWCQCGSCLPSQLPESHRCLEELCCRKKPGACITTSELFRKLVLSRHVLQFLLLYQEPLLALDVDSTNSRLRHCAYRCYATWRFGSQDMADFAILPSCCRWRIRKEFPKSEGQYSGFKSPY
As to the kind of experiment: Two-electrode voltage clamp of ATP-evoked currents in Xenopus oocytes. The format is cell-based.
Protocol: The production of the correct mutations and absence of coding errors was determined by DNA sequencing (Automated ABI Sequencing Service, University of Leicester, UK). cRNA was generated for the mutants and 50 nl (50 ng) was injected into manually defoliculated stage V Xenopus laevis oocytes using an Inject+Matic microinjector (J.A. Gabay, Inject+Matic, Geneva, Switzerland). Injected oocytes were stored at 16°C in ND96 buffer [in millimolar concentrations, NaCl 96, KCl 2, CaCl2 1.8, MgCl2 1, sodium pyruvate 5, and HEPES 5 (pH 7.6) supplemented with 50 μg/ml gentamycin and 50 μg/ml tetracycline]. Three to seven days postinjection two-electrode voltage clamp recordings were made from oocytes bathed in divalent-free ND96 buffer (in millimolar concentrations, NaCl 96, KCl 2, sodium pyruvate 5, HEPES 5, and 0.1 flufenamic acid, pH 7.6). Oocytes were voltage clamped at a holding potential of −60 mV with a GeneClamp500B amplifier (Molecular Devices).
as §2

The target of a further test is T12, P2X7R point mutant A166G (Homo sapiens, UniProt Q99572, A166G/I21V/M24R/N16P/N25R/Q22R/R20V/S23N/T19I/Y26L).
T12 construct: expressed in transfected cells; host or cells: Xenopus laevis oocytes (cRNA injection)
T12 sequence (Q99572 whole entry N16P/T19I/R20V/I21V/Q22R/S23N/M24R/N25R/Y26L/A166G): as the sequence (Q99572 whole entry N16P/T19I/R20V/I21V/Q22R/S23N/M24R/N25R/Y26L/Y295A) above, with A166G, A295Y counted along it
The description is as above. The format is cell-based. Conditions: EC90 ATP, mean ± S.E.M.

For test [3], the target named is T13, chimeric P2X7/1 receptor 164–168 (Homo sapiens, UniProt Q99572, A166G/I21V/M24R/N16P/N25R/Q22R/R20V/S165F/S23N/T19I/V164I/Y26L).
T13 construct: expressed in transfected cells; host or cells: Xenopus laevis oocytes (cRNA injection)
T13 sequence (Q99572 1-595 N16P/T19I/R20V/I21V/Q22R/S23N/M24R/N25R/Y26L/V164I/S165F/A166G): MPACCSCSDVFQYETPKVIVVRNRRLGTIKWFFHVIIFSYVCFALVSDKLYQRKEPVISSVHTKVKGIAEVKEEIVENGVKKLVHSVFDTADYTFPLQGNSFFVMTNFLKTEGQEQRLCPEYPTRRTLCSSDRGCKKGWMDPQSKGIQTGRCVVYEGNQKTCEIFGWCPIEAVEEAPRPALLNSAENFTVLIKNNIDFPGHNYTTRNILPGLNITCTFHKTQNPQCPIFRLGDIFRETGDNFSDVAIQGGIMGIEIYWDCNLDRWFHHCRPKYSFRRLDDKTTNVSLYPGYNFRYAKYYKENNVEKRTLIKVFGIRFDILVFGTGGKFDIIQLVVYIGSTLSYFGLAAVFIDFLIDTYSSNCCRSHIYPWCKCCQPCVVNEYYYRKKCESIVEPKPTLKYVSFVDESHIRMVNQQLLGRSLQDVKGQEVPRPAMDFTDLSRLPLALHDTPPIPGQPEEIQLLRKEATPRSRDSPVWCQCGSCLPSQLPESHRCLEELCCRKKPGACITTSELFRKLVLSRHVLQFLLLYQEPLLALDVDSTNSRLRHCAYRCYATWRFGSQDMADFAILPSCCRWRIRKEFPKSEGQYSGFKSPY
The description is as above. In kind it is cell-based. The following applies: chimera 164–168; for IC50: inhibition of EC90 ATP response.
Protocol: as §1
(§3) Inhibition by the antagonists was expressed as the percentage of the peak current amplitude of an EC90 concentration of ATP recorded before the application of antagonist (ATP gave reproducible responses to ATP in the absence of antagonist). Inhibition curves were fitted with the Hill equation (variable slope) using GraphPad Prism 6 (GraphPad Software, San Diego, CA). […] Individual concentration-response curves were generated for individual experiments, and statistical analysis was carried out on the data generated. When shown in figures, the inhibition curves are fitted to the mean normalized data. […] Data are shown as mean ± S.E.M. In all cases n ≥ 3 for all data points.

Another test concerns the target T14, P2X7R point mutant E305A (Homo sapiens, UniProt Q99572, E305A/I21V/M24R/N16P/N25R/Q22R/R20V/S23N/T19I/Y26L).
T14 construct: expressed in transfected cells; host or cells: Xenopus laevis oocytes (cRNA injection)
Described as above. The format is cell-based. The following applies: EC90 ATP, mean ± S.E.M.

T14 sequence (Q99572 whole entry N16P/T19I/R20V/I21V/Q22R/S23N/M24R/N25R/Y26L/E305A): as the sequence (Q99572 whole entry N16P/T19I/R20V/I21V/Q22R/S23N/M24R/N25R/Y26L/Y295A) above, with A295Y, E305A counted along it
T5 sequence (Q99572 whole entry N16P/T19I/R20V/I21V/Q22R/S23N/M24R/N25R/Y26L/T308A): as the sequence (Q99572 whole entry N16P/T19I/R20V/I21V/Q22R/S23N/M24R/N25R/Y26L/Y295A) above, with A295Y, T308A counted along it
T7 sequence (Q99572 whole entry N16P/T19I/R20V/I21V/Q22R/S23N/M24R/N25R/Y26L/D92A): as the sequence (Q99572 whole entry N16P/T19I/R20V/I21V/Q22R/S23N/M24R/N25R/Y26L/Y295A) above, with D92A, A295Y counted along it
T1 sequence (Q99572 1-595 with the stated changes): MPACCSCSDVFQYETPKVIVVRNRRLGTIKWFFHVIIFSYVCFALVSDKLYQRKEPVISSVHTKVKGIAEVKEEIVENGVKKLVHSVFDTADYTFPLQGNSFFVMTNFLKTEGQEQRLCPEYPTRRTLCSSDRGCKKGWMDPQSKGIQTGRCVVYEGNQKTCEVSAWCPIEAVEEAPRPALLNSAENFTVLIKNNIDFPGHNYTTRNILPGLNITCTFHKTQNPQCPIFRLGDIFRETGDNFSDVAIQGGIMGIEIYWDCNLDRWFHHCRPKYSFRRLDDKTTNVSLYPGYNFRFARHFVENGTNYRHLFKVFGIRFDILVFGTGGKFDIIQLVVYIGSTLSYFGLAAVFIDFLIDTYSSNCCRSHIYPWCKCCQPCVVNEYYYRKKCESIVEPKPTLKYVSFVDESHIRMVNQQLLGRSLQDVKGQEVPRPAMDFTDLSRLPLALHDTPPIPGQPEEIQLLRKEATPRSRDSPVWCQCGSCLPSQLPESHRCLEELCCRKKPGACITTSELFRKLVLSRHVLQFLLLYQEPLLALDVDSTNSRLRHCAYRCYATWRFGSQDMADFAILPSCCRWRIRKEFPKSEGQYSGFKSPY
T3 sequence (Q99572 whole entry N16P/T19I/R20V/I21V/Q22R/S23N/M24R/N25R/Y26L/T90V): as the sequence (Q99572 whole entry N16P/T19I/R20V/I21V/Q22R/S23N/M24R/N25R/Y26L/Y295A) above, with T90V, A295Y counted along it
T6 sequence (Q99572 whole entry N16P/T19I/R20V/I21V/Q22R/S23N/M24R/N25R/Y26L/H85P): as the sequence (Q99572 whole entry N16P/T19I/R20V/I21V/Q22R/S23N/M24R/N25R/Y26L/Y295A) above, with H85P, A295Y counted along it
T9 sequence (Q99572 whole entry N16P/T19I/R20V/I21V/Q22R/S23N/M24R/N25R/Y26L/I310A): as the sequence (Q99572 whole entry N16P/T19I/R20V/I21V/Q22R/S23N/M24R/N25R/Y26L/Y295A) above, with A295Y, I310A counted along it
T10 sequence (Q99572 whole entry N16P/T19I/R20V/I21V/Q22R/S23N/M24R/N25R/Y26L/Y298A): as the sequence (Q99572 whole entry N16P/T19I/R20V/I21V/Q22R/S23N/M24R/N25R/Y26L/Y295A) above, with A295Y, Y298A counted along it
Protocol for P2X7R point mutant A166G: (§4) Injected oocytes were stored at 16°C in ND96 buffer [in millimolar concentrations, NaCl 96, KCl 2, CaCl2 1.8, MgCl2 1, sodium pyruvate 5, and HEPES 5 (pH 7.6) supplemented with 50 μg/ml gentamycin and 50 μg/ml tetracycline]. Three to seven days postinjection two-electrode voltage clamp recordings were made from oocytes bathed in divalent-free ND96 buffer (in millimolar concentrations, NaCl 96, KCl 2, sodium pyruvate 5, HEPES 5, and 0.1 flufenamic acid, pH 7.6). Oocytes were voltage clamped at a holding potential of −60 mV with a GeneClamp500B amplifier (Molecular Devices).
as §3
Protocol for P2X7R point mutant D92A: as §4, §2
Protocol for P2X7R point mutant E305A: as §4, §2
Protocol for P2X7R point mutant H85P: as §1
(§5) Inhibition by the antagonists was expressed as the percentage of the peak current amplitude of an EC90 concentration of ATP recorded before the application of antagonist (ATP gave reproducible responses to ATP in the absence of antagonist). […]
Protocol for P2X7R point mutant I310A: as §4, §2
Protocol for P2X7R point mutant M105A: as §4, §2
Protocol for P2X7R point mutant S165F: as §4, §3
Protocol for P2X7R point mutant T308A: as §4, §2
Protocol for P2X7R point mutant T90V: as §1, §5
Protocol for P2X7R point mutant Y295A: as §1, §5
Protocol for P2X7R point mutant Y298A: as §4, §3

As for `Cl.Clc1cccc(-c2nnnn2Cc2cccnc2)c1Cl.O` [A438079, 3-(5-(2,3-dichlorophenyl)-1H-tetrazol-1-yl)methyl pyridine hydrochloride hydrate], the half-maximal inhibitory concentration (IC50) – broadly, the point on the concentration scale where inhibition reaches its midpoint – in test [1] was 10 µM; against P2X7R point mutant Y295A it was 2 µM; at P2X7R point mutant T90V, 5.01 µM; at P2X7R point mutant M105A, 1.58 µM; against P2X7R point mutant T308A, 1 µM; against P2X7R point mutant H85P, 1 µM. The half-maximal inhibitory concentration (IC50) against P2X7R point mutant D92A is over 100 µM; at P2X7R point mutant S165F, 7.94 µM; against P2X7R point mutant I310A, 6.31 µM; against P2X7R point mutant Y298A, 6.31 µM; in test [2] it was 0.251 µM; against P2X7R point mutant A166G, 3.98 µM. Moreover, the IC50 is 10 µM in test [3] and 0.2 µM on P2X7R point mutant E305A.
As for `COc1ccc(CC(=O)NC(N=C(NC#N)Nc2cccc3ncccc23)C(C)(C)C)cc1OC` (stereo not drawn) [A740003, N-[1-[[(cyanoamino)(5-quinolinylamino)methylene]amino]-2,2-dimethylpropyl]-3,4-dimethoxybenzeneacetamide], the concentration for half-maximal inhibition (IC50) in [1] is 0.501 µM; against P2X7R point mutant Y295A, 0.158 µM; at P2X7R point mutant T90V, 0.398 µM; at P2X7R point mutant M105A it was 12.6 µM; against P2X7R point mutant T308A it was 0.1 µM; against P2X7R point mutant H85P, 0.398 µM. Further, the concentration for half-maximal inhibition (IC50) on P2X7R point mutant D92A was 7.94 µM; against P2X7R point mutant S165F it was 0.2 µM; against P2X7R point mutant I310A it was 0.126 µM; against P2X7R point mutant Y298A, 2 µM; in test [2], 0.0794 µM; at P2X7R point mutant A166G, 0.316 µM. The IC50 in test [3] was 0.398 µM; at P2X7R point mutant E305A it was 0.0251 µM. Moreover, the “effect on antagonist sensitivity relative to P2X7-2Nβ” value in test [2] (chimera 210–217) is reported as “unaffected”. For the same compound, in [3], the “fold decrease in antagonist sensitivity relative to P2X7-2Nβ” value is listed as about 5 fold.
